“Also recorded” adds a separate entry of the source.
Key:
[1] = test system: aortic smooth muscle cells; experiment: HSP27 secretion from aortic smooth muscle cells (Western blot); type: cell-based, human; conditions: DPN 1 nM, 24 h
Excerpt: (§1) HSP27 was detected in the extracellular space by Western blot.

Human macrophages (U937) = experiment: HSP27 secretion from human macrophages (Western blot of conditioned media); type: cell-based
Description: (§2) Cell lysates were obtained using a RIPA buffer [1% NP-40, 0.5% sodium deoxycholate, 0.1% SDS, Complete™ inhibitor in PBS]. Cells were washed twice with PBS, lysed in RIPA buffer, collected using a cell scraper, and placed on ice for 45 minutes. Cell debris was collected by centrifugation at 15,000×g for 20 minutes, and the supernatant containing the cellular protein was isolated. Protein was quantified using Bradford reagent (Sigma). For western blotting, 50 μg of whole cell protein was loaded onto a 10% SDS-PAGE gel and separated at 120V using gel electrophoresis. Protein was then transferred to a PVDF membrane (BioRad, Hercules, Calif.) for 2 hours at 60V. Membranes were then subjected to western blotting using the following antibodies: anti-HSP27 (Santa Cruz, 1:200); anti-SR-A (Chemicon, 1:2000); anti-IL-1β (R&D, 1:500); anti-IL-10 (Santa Cruz, 1:200).
Human macrophages (U937) were plated in replicates at a density of […] per well and treated with estradiol or acLDL. […] Macrophages were subjected to increasing concentrations of acLDL (1 to 100 μg/mL) for 24 hours.

aortic endothelial cells = experiment: HSP27 secretion from aortic endothelial cells (Western blot); type: cell-based, human; conditions: DPN 1 nM, 24 h
Excerpt: as §1

[2] = molecular target: T1, scavenger receptor A (SR-A) (Mus musculus, UniProt P30204); experiment: Immunolabeling of recombinant HSP27 binding to macrophage surface and SR-A
T1 construct: detection of a ˜50 kDa band corresponding to SR-A in these cells; endogenous in cells; host or cells: J774 mouse macrophages (untransfected); mouse peritoneal macrophages
T1 sequence (P30204 1-458): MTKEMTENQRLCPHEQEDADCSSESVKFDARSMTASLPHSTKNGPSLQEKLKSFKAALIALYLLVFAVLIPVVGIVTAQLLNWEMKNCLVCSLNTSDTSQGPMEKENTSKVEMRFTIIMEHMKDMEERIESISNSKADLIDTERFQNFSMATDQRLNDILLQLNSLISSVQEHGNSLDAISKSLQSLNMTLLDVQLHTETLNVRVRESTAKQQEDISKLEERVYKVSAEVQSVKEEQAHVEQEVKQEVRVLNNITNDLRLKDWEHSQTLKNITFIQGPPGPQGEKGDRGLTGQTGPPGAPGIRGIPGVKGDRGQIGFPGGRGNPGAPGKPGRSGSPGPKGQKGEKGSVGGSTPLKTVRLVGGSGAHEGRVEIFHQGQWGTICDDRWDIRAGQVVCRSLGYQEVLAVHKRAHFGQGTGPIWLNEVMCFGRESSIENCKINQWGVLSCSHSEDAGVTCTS
Description: J774 cells treated with recombinant HSP27 (5 μg/ml) with or without fucoidan (10 μg/ml) were fixed with BD Cytofix (BD Biosciences, Mississauga, ON) and blocked with 2% bovine serum albumin (BSA) for 2 hours. Antibodies against human HSP27 (Chemicon, 1:200) and scavenger receptor A (Serotec, 1:200) were incubated overnight at 4° C. Visualization of substrates was done using secondary antibodies conjugated to fluoroscein (for HSP27) and Texas Red (for SR-A). Negative controls included incubation with control IgG and secondary antibody alone.
Cells were grown on cover slips, and transfected as described above. Cells were fixed with BD Cytofix as directed by the manufacturer and mounted with Dako Fluorescent mounting media (Dako Cytomation, Mississauga, ON). Coverslips were visualized with an Olympus FluoView FV1000 confocal microscope (Olympus America Inc, Center Valley, Pa.) at 100× magnification, using sequential scanning to reduce any potential non-specific excitation of the different fluorophores.
Cells were also treated with an SR-A specific competitive ligand (fucoidan, 10 ug/ml) before administration of HSP27 (bottom panel). Co-localization is seen as a yellow colour. […] Macrophages from SR-A null mice were harvested and incubated with recombinant HSP27 (5 μg/ml) for 2 hours at 4° C. Immunolabeling was performed as described above.

[3] = test system: macrophages (acLDL uptake via the scavenger receptor A); experiment: Fluorescent acLDL uptake by macrophages; type: cell-based, mouse
Description: Cells were treated with Dil-acLDL (5 μg/ml) for 4 hours at 37° C., in the presence of recombinant HSP27 (5 μg/ml) and/or fucoidan (10 μg/ml). Cells were harvested by gentle cell scraping in 100 μl of PBS. Each sample was analyzed for acLDL fluorescence on a BMG PolarStar plate reader (excitation: 510 nm, emission: 570 nm) and normalized to total cell number using the Vi-Cell cell counter (Beckman Coulter, Mississauga, ON).
Foam cell formation is a hallmark process in the development of atherosclerosis, and prevention of lipid uptake by macrophages may serve to reduce overall lesion development and inflammation. If HSP27 can bind the SR-A in vitro, and there is an atheroprotective effect of HSP27 in vivo, HSP27 may prevent the SR-A from taking up atherogenic lipids such as acLDL and becoming foam cells. In support of this, mouse macrophages were cultured in vitro in the presence of fluorescently labeled acLDL for […], and acLDL uptake was measured using a fluorometer and normalized to total cell number.
Extracellular HSP27 inhibits uptake of acLDL by macrophages via the scavenger receptor A. Fluorescently labeled acLDL (5 μg/ml) was given to macrophages in the presence (right columns) or absence (left columns) of recombinant HSP27 (5 μg/ml). […] Fluorescent uptake was measured and normalized to total cell number.

ApoE−/− mice = experiment: Short term (3 week) rHSP27 treatment of ApoE−/− mice on high fat diet; type: in vivo, mouse
Description: ApoE^−/− mice were maintained on a high fat diet and randomized to rHSP27 (100 ug) vs. phosphate buffered saline (PBS) twice a day for 3 weeks.
FIG. 22A depicts the experimental design: ApoE^−/− mice were maintained on a high fat diet and randomized to rHSP27 (100 ug) vs. phosphate buffered saline (PBS) twice a day for 3 weeks. The mice were then euthanized and blood samples were collected. After perfusing with phosphate-buffered saline (PBS) followed by 4% paraformaldehyde (PFA) in PBS via the left ventricle, the heart and aorta were removed and immersed in 4% PFA/PBS at 4° C. overnight. Serum lipoprotein separation was performed by fast-performance liquid chromatography (FPLC) analysis using a Superose 6 column (Pharmacia Biotech Inc., Piscataway, N.J., USA) on an HPLC system model 805 MANOMETRIC MODULE (GILSON). An enzymatic assay kit (Wako Pure Chemical Industries, Ltd, Osaka, Japan) was employed to determine cholesterol level. The content of the aortic atherosclerotic lesions were assessed using quantitative histochemical and immunohistochemical methods. Dark red oil red O staining identifying lipidoid deposits, while Haematoxylin and eosin (H&E) stained denote tissue histopathology.
Hematoxylin and eosin (H&E) stained tissue sections were also labeled for nuclear staining (blue fluorescent Hoechst 33258), apoptosis (green fluorescent TUNEL labeling) and macrophages accumulation (green fluorescent Mac-2).

Insulin = experiment: rHSP27 chaperone activity assay (DTT-induced aggregation of insulin); type: biochemical; conditions: Insulin 40 μM; Insulin:rHSP27 10:1 and 100:1; 43° C.; absorbance at 320 nm
Description: The rHSP27 was produced in E. coli. The rHSP27 so produced is >90% endotoxin free (endotoxin concentration assessed using Limulus Amebocyte Lysate gel-blot Assay: 2-3 EU/mg protein). Based on in vitro chaperone assay experiments, the protein is “functional”. […] The DTT-induced aggregation of insulin was performed in the absence and presence of rHSP27 in PBS solution, pH 7.4, to measure the chaperone activity of rHSP27. Insulin (40 μM) with different concentration of rHSP27 (Insulin: rHSP27=10:1 and 100:1 and no rHSP27) in PBS were incubated for 10 min at 43° C., respectively. Aggregation was monitored by measure the absorbance at 320 nm in Bioteck Synergy Mx spectrophotometer for 30 min at 43° C. after add DTT to a final concentration of 20 mM.

[4] = rHSP27 pharmacokinetic experiments (subcutaneous injection); type: in vivo, mouse; conditions: 100 μg subcutaneously, male and female ApoE−/− mice; similar to female ApoE−/− HSP27o/e mice
Description: These were performed by injecting 100 μg of purified rHSP27 or control BSA (in PBS) subcutaneously into male and female ApoE^−/− mice and then checked serum rHSP27 levels at various times post-injection (n=3-6).

[5] = test system: macrophages (IL-1β, IL-10 release); experiment: Cytokine release from acLDL-treated macrophages (western blot of conditioned media); type: cell-based, mouse; conditions: recombinant HSP27 5 μg/ml, acLDL 5 ug/ml, 30 minutes and 4 hours
Description: as §2
Fluorescently labeled acLDL (5 ug/ml) was given to macrophages in the presence or absence of recombinant HSP27 (5 μg/ml). Conditioned media was collected after 30 minutes and 4 hours and subjected to western blotting for IL-1β (FIG. 7A) and IL-10 (FIG. 7B). Addition of HSP27 caused a decrease in the acLDL-induced secretion of IL-1β into the extracellular space.

N#CC(Cc1ccc(O)cc1)c1ccc(O)cc1 (stereo not shown) [DPN]
HSP27 secretion from smooth muscle cells [1]: not smooth muscle cells | HSP27 secretion upon stimulation of ERβ (Human macrophages (U937); DPN 1 nM, 4 h or 24 h): enhanced | HSP27 secretion from endothelial cells (aortic endothelial cells): increase in HSP27 secretion

C[C@]12CC[C@@H]3c4ccc(O)cc4CC[C@H]3[C@@H]1CC[C@@H]2O [E2, 17β-estradiol]
intracellular HSP27 protein levels (Human macrophages (U937)): increased slightly | colocalization of HSP27 with lysosome marker LAMP1 (Human macrophages (U937); 100 nmol/L E2 overnight): displayed colocalization of HSP27 (red) and LAMP1 | HSP27 release into the media (Human macrophages (U937); E2 for 24 hours, compared to controls): dose-dependent increase | time of maximum HSP27 secretion (Human macrophages (U937); estrogen-induced release over time): 24 h

fucoidan [reference compound]
HSP27 binding to SR-A in the presence of competitor ([2]; fucoidan 10 ug/ml before HSP27): reduced | inhibition of acLDL uptake by macrophages ([3]; fucoidan 10 ug/ml before acLDL or HSP27): capable of inhibiting this process

rHSP27: recombinant human heat shock protein 27 produced in E. coli, purified, injected subcutaneously
body weight (ApoE−/− mice; 100 ug BID, 3 weeks): did not change | cholesterol levels contained by VLDL and IDL/LDL (FPLC) (ApoE−/− mice; 100 ug BID, 3 weeks): reduces cholesterol levels contained by VLDL and IDL/LDL | number of WBC (peripheral blood smears) (ApoE−/− mice; 100 ug BID, 3 weeks): did not change | reduction in abundance of aortic sinus lesion macrophages (ApoE−/− mice; 100 ug BID, 3 weeks, Mac-2): approximately 45% | reduction in abundance of apoptotic macrophages in aortic sinus lesion (ApoE−/− mice; 100 ug BID, 3 weeks, TUNEL): ~80% | reduction in aortic sinus lesion area (ApoE−/− mice; 100 ug BID, 3 weeks, p=0.002): 26% | reduction in aortic wall (en face) lesion area (ApoE−/− mice; 100 ug BID, 3 weeks, p=0.01): 27% | liver cholesterol content (ApoE−/− mice; 100 ug BID, after the 3rd week): without a rise | serum total cholesterol levels lower by (ApoE−/− mice; 100 ug BID, after the 3rd week, vs PBS): 41% | adverse events when injected in mice (ApoE−/− mice; mouse, in vivo): did not cause adverse events | atherogenesis in ApoE−/− mice (ApoE−/− mice; mouse, in vivo): efficacious in reducing atherogenesis | chaperone activity (in vitro aggregation and refolding assays) (Insulin): functional | serum rHSP27 level with twice daily injection schedule [4]: effective to maintain a serum level of rHSP27

recombinant HSP27: Recombinant HSP27 was purchased from Stressgen; heat shock protein 27 added extracellularly to macrophages
HSP27 binding to the cell surface of macrophages from SR-A null mice ([2]; 5 μg/ml, 2 hours at 4° C.): completely abolished | binding to surface of macrophages and co-localization with SR-A ([2]; 5 μg/ml, 2 hours at 4° C., confocal microscopy): capable of binding the surface of macrophages, and co-localizes with SR-A | reduction in acLDL uptake by macrophages ([3]; recombinant HSP27 5 μg/ml, fluorescently labeled acLDL 5 μg/ml, normalized to total cell number): 41% | acLDL-induced secretion of IL-1β [5]: decrease | release of IL-10 [5]: increased | acLDL-induced secretion of IL-1β ([5]; listed as HSP27): considerable decrease; also recorded: reduced
